SMILES strings stand for the structures.

The experiment has as its target full-length human LSD1 (Homo sapiens (Human), UniProt O60341). Put plainly: In Vitro Enzyme Inhibition Assay - LSD-1 (TR-FRET). In kind it is biochemical. The note with it: 0.1 nM LSD1, H3K4me1-biotin peptide. The method, then: This assay determines the ability of a test compound to inhibit LSD1 demethylase activity.
The enzymatic assay of LSD1 activity is based on Time Resolved-Fluorescence Resonance Energy Transfer (TR-FRET) detection.
The ability of the compounds disclosed herein to inhibit LSD1 activity was quantified and the respective IC50 value was determined.
On the technique in general: In TR-FRET formats the signal depends on donor and acceptor labels being close together.

What is called IC50 is the point on the concentration scale where inhibition reaches its midpoint. A higher IC50 goes with lower potency. The molecule `Cc1ccc(-c2cnc(NCC3(F)CCNC3)nc2-c2ccc(C#N)cc2)cc1` (racemic) [Example 28, (±)-4-(2-{[(3-fluoropyrrolidin-3-yl)methyl]amino}-5-(4-methylphenyl)pyrimidin-4-yl)benzonitrile] yielded an IC50 below 100 nM.

For `Cc1ccc(-c2cnc(NC3CCCNC3)nc2-c2ccc(C#N)cc2)cc1` (racemic) [Example 29, (±)-4-[5-(4-methylphenyl)-2-[(piperidin-3-yl)amino]pyrimidin-4-yl]benzonitrile], the IC50 was below 100 nM.

`Cc1ccc(-c2nc3ccn(C[C@@H]4CCNC4)c3cc2-c2ccc(C#N)cc2)cc1` [Example 1, 4-[5-(4-methylphenyl)-1-[[(3R)-pyrrolidin-3-yl]methyl]pyrrolo[3,2-b]pyridin-6-yl]benzonitrile]: the IC50 was below 100 nM.

For `N#Cc1ccc(-c2cc3c(ccn3C[C@@H]3CCNC3)nc2Cl)cc1` [Example 2, 4-[5-chloro-1-[[(3R)-pyrrolidin-3-yl]methyl]pyrrolo[3,2-b]pyridin-6-yl]benzonitrile], the IC50 is 100 to 1000 nM.

With `Cc1ccc(-c2nc3ccn(C[C@H]4CCNC4)c3cc2-c2ccc(C#N)cc2)cc1` [Example 3, 4-[5-(4-methylphenyl)-1-[[(3S)-pyrrolidin-3-yl]methyl]pyrrolo[3,2-b]pyridin-6-yl]benzonitrile], the half-inhibitory concentration (IC50) is below 100 nM.

Turning to `N#Cc1ccc(-c2cc3c(ccn3C[C@H]3CCNC3)nc2-c2ccc(F)cc2)cc1` [Example 5, 4-[5-(4-fluorophenyl)-1-[[(3S)-pyrrolidin-3-yl]methyl]pyrrolo[3,2-b]pyridin-6-yl]benzonitrile], the IC50 was below 100 nM.

Molecule `N#Cc1ccc(-c2cc3c(ccn3C[C@H]3CCNC3)nc2N2CCOCC2)cc1` [Example 7, 4-[5-morpholin-4-yl-1-[[(3S)-pyrrolidin-3-yl]methyl]pyrrolo[3,2-b]pyridin-6-yl]benzonitrile] displayed an IC50 below 100 nM.

Consider `Cc1ccc(-c2nc3ccn(C[C@H]4CNCCO4)c3cc2-c2ccc(C#N)cc2)cc1` [Example 10, 4-[5-(4-methylphenyl)-1-[[(2R)-morpholin-2-yl]methyl]pyrrolo[3,2-b]pyridin-6-yl]benzonitrile], for which the IC50 is below 100 nM.

The molecule `N#Cc1ccc(-c2cc3c(ccn3C[C@H]3CNCCO3)nc2-c2ccc(F)cc2)cc1` [Example 11, 4-[5-(4-fluorophenyl)-1-[[(2R)-morpholin-2-yl]methyl]pyrrolo[3,2-b]pyridin-6-yl]benzonitrile] displayed an IC50 below 100 nM.

For `Cc1ccc(-c2nc3ccn(CCCN)c3cc2-c2ccc(C#N)cc2)cc1` [Example 12, 4-[1-(3-aminopropyl)-5-(4-methylphenyl)pyrrolo[3,2-b]pyridine-6-yl]benzonitrile], the IC50 is below 100 nM.

`Cc1ccc(-c2nc3cnn(CC4CCNC4)c3cc2-c2ccc(C#N)cc2)cc1` (stereo not shown) [Example 13, 4-[5-(4-methylphenyl)-1-(pyrrolidin-3-ylmethyl)pyrazolo[4,3-b]pyridin-6-yl]benzonitrile]: the IC50 was below 100 nM.

In the case of `Cc1ccc(-c2nc3cnn(CC4CCNCC4)c3cc2-c2ccc(C#N)cc2)cc1` [Example 14, 4-[5-(4-methylphenyl)-1-(piperidin-4-ylmethyl)pyrazolo[4,3-b]pyridin-6-yl]benzonitrile], the IC50 was below 100 nM.

Regarding `Cc1ccc(-c2nc3cnn(C[C@H]4[C@@H]5CNC[C@@H]54)c3cc2-c2ccc(C#N)cc2)cc1` [Example 15, 4-[1-[[(1S,5R)-3-azabicyclo[3.1.0]hexan-6-yl]methyl]-5-(4-methylphenyl)pyrazolo[4,3-b]pyridin-6-yl]benzonitrile], the IC50 is below 100 nM.

Molecule `Cc1ccc(-c2cnc(NC[C@H]3CCNC3)nc2-c2ccc(C#N)cc2)cc1` [Example 16, 4-[5-(4-methylphenyl)-2-{[(3S)-pyrrolidin-3-ylmethyl]amino}pyrimidin-4-yl]benzonitrile] displayed an IC50 below 100 nM.

`N#Cc1ccc(-c2nc(NC[C@H]3CCNC3)ncc2-c2ccc(F)cc2)cc1` [Example 18, 4-[5-(4-fluorophenyl)-2-{[(3S)-pyrrolidin-3-ylmethyl]amino}pyrimidin-4-yl]benzonitrile] returned an IC50 below 100 nM.

Regarding `N#Cc1ccc(-c2nc(NC[C@H]3CCNC3)ncc2-c2ccc(Cl)cc2)cc1` [Example 19, 4-[5-(4-chlorophenyl)-2-{[(3S)-pyrrolidin-3-ylmethyl]amino}pyrimidin-4-yl]benzonitrile], the IC50 is below 100 nM.

In turn, `Cc1ccc(-c2cnc(OC[C@@H]3CCNC3)nc2-c2ccc(C#N)cc2)cc1` [Example 20, 4-[5-(4-methylphenyl)-2-[(3R)-pyrrolidin-3-ylmethoxy]pyrimidin-4-yl]benzonitrile] displayed an IC50 below 100 nM.

The molecule `Cc1ccc(-c2cnc(N3C[C@H]4CNC[C@H]4C3)nc2-c2ccc(C#N)cc2)cc1` [Example 21, 4-{2-[(3aR,6aS)-octahydropyrrolo[3,4-c]pyrrol-2-yl]-5-(4-methylphenyl)pyrimidin-4-yl}benzonitrile] yielded an IC50 below 100 nM.

On to `Cc1ccc(-c2cnc(N3CCC4CNCC4C3)nc2-c2ccc(C#N)cc2)cc1` (stereo not shown) [Example 22, 4-[5-(4-methylphenyl)-2-{octahydro-1H-pyrrolo[3,4-c]pyridin-5-yl}pyrimidin-4-yl]benzonitrile], for which the IC50 is below 100 nM.

For the molecule `Cc1ccc(-c2cnc(N3CC[C@@H]4CNC[C@@H]4CC3)nc2-c2ccc(C#N)cc2)cc1` [Example 23, 4-{2-[(3aR,8aS)-decahydropyrrolo[3,4-d]azepin-6-yl]-5-(4-methylphenyl)pyrimidin-4-yl}benzonitrile], the IC50 is below 100 nM.

Molecule `N#Cc1ccc(-c2nc(N3CC[C@@H]4CNC[C@@H]4CC3)ncc2-c2ccc(F)cc2)cc1` [Example 24, 4-{2-[(3aR,8aS)-decahydropyrrolo[3,4-d]azepin-6-yl]-5-(4-fluorophenyl)pyrimidin-4-yl}benzonitrile] returned an IC50 below 100 nM.

Regarding `N#Cc1ccc(-c2nc(NC[C@H]3CCNC3)ncc2-c2ccc(C(F)(F)F)cc2)cc1` [Example 25, 4-(2-{[(3S)-pyrrolidin-3-ylmethyl]amino}-5-[4-(trifluoromethyl)phenyl]pyrimidin-4-yl)benzonitrile], the IC50 is below 100 nM.

Consider `N#Cc1ccc(-c2nc(NC[C@H]3CCNC3)ncc2C#CC2CC2)cc1` [Example 26, 4-[5-(2-cyclopropylethynyl)-2-{[(3S)-pyrrolidin-3-ylmethyl]amino}pyrimidin-4-yl]benzonitrile], for which the IC50 was below 100 nM.

Molecule `Cc1ccc(-c2cnc(NC3CCNCC3)nc2-c2ccc(C#N)cc2)cc1` [Example 30, 4-[5-(4-methylphenyl)-2-[(piperidin-4-yl)amino]pyrimidin-4-yl]benzonitrile] returned an IC50 below 100 nM.

Regarding `Cc1ccc(-c2cnc(NCC3CCNCC3)nc2-c2ccc(C#N)cc2)cc1` [Example 32, 4-[5-(4-methylphenyl)-2-[(piperidin-4-ylmethyl)amino]pyrimidin-4-yl]benzonitrile], the 50% inhibitory concentration (IC50) is below 100 nM.

In turn, `Cc1ccc(-c2cnc(N3CCC4(CCNC4)C3)nc2-c2ccc(C#N)cc2)cc1` (stereo not shown) [Example 35, 4-(2-{2,7-diazaspiro[4.4]nonan-2-yl}-5-(4-methylphenyl)pyrimidin-4-yl)benzonitrile] registered an IC50 below 100 nM.

`Cc1ccc(-c2cnc(N3CCC4(CCNCC4)C3)nc2-c2ccc(C#N)cc2)cc1` [Example 36, 4-(2-{2,8-diazaspiro[4.5]decan-2-yl}-5-(4-methylphenyl)pyrimidin-4-yl)benzonitrile] showed a concentration for half-maximal inhibition (IC50) below 100 nM.

For `Cc1ccc(-c2cnc(N3CCC4(CCNC4)CC3)nc2-c2ccc(C#N)cc2)cc1` [Example 39, 4-(2-{2,8-diazaspiro[4.5]decan-8-yl}-5-(4-methylphenyl)pyrimidin-4-yl)benzonitrile], the IC50 is below 100 nM.

Consider `Cc1ccc(-c2cnc(N3CCC4(CCCN4)CC3)nc2-c2ccc(C#N)cc2)cc1` [Example 40, 4-(2-{1,8-diazaspiro[4.5]decan-8-yl}-5-(4-methylphenyl)pyrimidin-4-yl)benzonitrile], for which the IC50 is below 100 nM.

Take `Cc1ccc(-c2cc(NCC3CCNC3)nn2-c2ccc(C#N)cc2)cc1` (stereo not shown) [Example 43, 4-[5-(4-methylphenyl)-3-(pyrrolidin-3-ylmethylamino)pyrazol-1-yl]benzonitrile]: the IC50 is below 100 nM.

The molecule `Cc1ccc(-c2cc(NC[C@H]3CCNC3)nn2-c2ccc(C#N)cc2)cc1` [Example 44, 4-[5-(4-methylphenyl)-3-[[(3S)-pyrrolidin-3-yl]methylamino]pyrazol-1-yl]benzonitrile] showed a half-inhibitory concentration (IC50) below 100 nM.

`Cc1ccc(-c2cc(NC[C@@H]3CCNC3)nn2-c2ccc(C#N)cc2)cc1` [Example 45, 4-[5-(4-methylphenyl)-3-[[(3R)-pyrrolidin-3-yl]methylamino]pyrazol-1-yl]benzonitrile] registered an IC50 below 100 nM.

Consider `Cc1ccc(-c2cc(NCC3CCNCC3)nn2-c2ccc(C#N)cc2)cc1` [Example 46, 4-[5-(4-methylphenyl)-3-(piperidin-4-ylmethylamino)pyrazol-1-yl]benzonitrile], for which the IC50 was below 100 nM.

`Cc1ccc(-c2cc(NC[C@H]3[C@@H]4CNC[C@@H]43)nn2-c2ccc(C#N)cc2)cc1` [Example 47, 4-[3-[[(1S,5R)-3-azabicyclo[3.1.0]hexan-6-yl]methylamino]-5-(4-methylphenyl)pyrazol-1-yl]benzonitrile] came in with an IC50 below 100 nM.

Source of the values: US10543198B2 (Celgene Quanticel Research, Inc., priority 2014, dated 2020).
